The source of these data is patent publication US10206905B2, “Use of composition for preparing a medicament for treatment of amyotrophic lateral sclerosis” (priority 2015, dated 2019).

Test [1] relates to SOD1-G93A mice. As to the kind of experiment: Onset time and survival time of SOD1-G93A mice (Example 1). The test is classed as in vivo. Particulars: for Survival Time Extension: i.p. once a day from age 70 d, versus SOD1-G93A control; for Onset Time / Survival Time: i.p. once a day from age 70 d until death. From the text:
The transgenic mice (B6SJL-TgN[SOD1-G93A] 1Gur) carrying humanized copper/zinc superoxide dismutase (SOD1) (G93A mutants) and wild-type B6SJL F1 mice are purchased from Nanjing University. The breed conversation and propagation methods of the mice: one wild-type female mouse and one transgenic male mouse are allowed to mate with each other, with their progeny identified through polymerase chain reaction (PCR) with DNA extracted from the tail of young mice.
5 B6SJL-TgN(SOD1-G93A)1Gur male mice were allowed to mate with B6SJLF1 female healthy mice in a ratio of 1 male to 3 females beginning at the age of 60 d. DNA was extracted from the progeny mice tail-cutting (as required in the kits), plus SOD1 primers 5′ -[…]-3 ′ and 5 ′ -[…] AAGTGA-3 ′ were amplified through 30 PCR cycles, confirming SOD1 gene strips between 200˜300bp. Mice without SOD1 mutant gene were eliminated.
(§1) Calculated based on the effective doses of edaravone (SOD1-G93Amousel5 mg/kg, SOD1-H46R rat 3-6mg/kg) and those on cerebral ischemic animal models (SD rat 6 mg/kg) according to the literature, the dosage of edaravone was set at 12 mg/kg, then the dosage of the composition of edaravone and borneol was set at 15 mg/kg (the dosage of edaravone was set at 12 mg/kg, borneol was 3 mg/kg), and borneol was set at 3 mg/kg.
SOD1 genetic mutant mice at the age of 70 d were divided randomly into 4 groups according to their motor functions. Respectively: the SOD1 genetic mutation control group; the treating group of the composition of edaravone and borneol at 15 mg/kg; the treating group of edaravone at 12 mg/kg; the treating group of borneol at 3 mg/kg; another B6SJL healthy mice control group without SOD lgenetic mutation was additionally set. There was 14 mice each group, half of males and half of females.
From the day of grouping, animals in each group were dosed by intraperitoneal injection once a day, until death. Animals in the healthy control group and the SOD1 genetic mutation control group were given saline of equal volumes.
It was determined as muscle strength decline when the time of the mice keeping on the rotarod decreased by over 30% compared with the former time determined. The onset time of the mice was determined according to the variation of this motor function and the observation of the anterior limbs of the mice with or without tremor. When the mice have lain on their backs on smooth planes for 30 s and cannot righting reflex, or there was serious infection in one or both eyes, then the mice may be judged as death and sacrificed. The time from birth to death of a mouse was the survival time of the mouse.
It was assessed whether there was a synergistic effect between edaravone and borneol in the composition according to the Jong-eun's formula, q=E(a+b)/(Ea+Eb−Ea×Eb). In the formula, E(a+b) is the effective rate of the combined drugs, Ea, Eb is the effective rate of A drug, B drug used alone, respectively. If q value was in the range of 0.85˜1.15, indicating the sum of the combined two drugs; q value >1.15 indicating enhancement, and q value <0.85 indicating there was an antagonistic effect when two drugs were used together.

Test [2] deals with SOD1-G93A mice. Put plainly: Rota-rod motor function of SOD1-G93A mice (Example 1). The test is classed as in vivo. As to conditions: p<0.05, FIG. 1. Here is the method:
According to the methods reported in literatures, mice were placed on the Rota-rod (60 Hz/min, Φ190 mm), and the time from being placed on the Rota-rod to dropping was recorded. Each mouse was determined for 3 times at each time point, with the longest time of mouse keeping on the rotating rod reflecting the motor function of the mouse, the determination was stopped if the time was over 180s, calculated as 180s. The motor functions of the mice with SOD1 mutant gene were determined beginning at the age of 60 d. Thereafter, they were observed and determined every 10 days, until death.
as §1
SOD1 genetic mutant mice at the age of 70 d were divided randomly into 4 groups according to their motor functions. […]

Test [3] relates to SOD1-G93A mice. As to the kind of experiment: Passive avoidance test of learning and memory in SOD1-G93A mice (Example 2). The test is classed as in vivo. As to conditions: memory experiment; for Latency period after entering the dark room versus model group: age about 90 d, FIG. 2; for Number of step-through errors versus model group: FIG. 3. The source says:
The transgenic mice (B6SJL-TgN[SOD1-G93A] 1Gur) carrying humanized copper/zinc superoxide dismutase (SOD1) (G93A mutants)and wild-type B6SJL F1 mice are purchased from Nanjing University. The breed conversation and propagation methods of the mice: one wild-type female mouse and one transgenic male mouse were allowed to mate with each other, with their progeny identified through polymerase chain reaction (PCR) with DNA extracted from the tail of young mice.
Calculated based on the effective doses of edaravone (SOD1-G93Amouse 15 mg/kg, SOD1-H46R rat 3-6 mg/kg) and those on cerebral ischemic animal models (SD rat 6 mg/kg) according to the literature, the dosage of edaravone was set at 12 mg/kg, then the dosage of the composition of edaravone and borneol was set at 15 mg/kg (the dosage of edaravone was set at 12 mg/kg, borneol was 3 mg/kg), and borneol was set at 3 mg/kg.
SOD1 genetic mutant mice at the age of 70 d were divided randomly into 4 groups according to their motor functions. Respectively: the SOD1 genetic mutation control group; the treating group of the composition of edaravone and borneol at 15 mg/kg; the treating group of edaravone at 12 mg/kg; the treating group of borneol at 3 mg/kg; another B6SJL healthy mice control group without SOD1 genetic mutation was additionally set. There was 14 mice each group, half of males and half of females.
From the day of grouping, animals in each group were dosed by intraperitoneal injection once a day, until the behavior test has been completed. Animals in the healthy control group and the SOD1 genetic mutation control group were given saline of equal volumes.
The passive avoidance test was performed when the animals were at the age of about 90 d to determine their abilities of learning and memory. The experimental device was divided into two rooms, bright and dark. […] The mice were placed into the bright room with face back to the hole in the test, the timer was initiated at the same time, and the animals entered the dark room through passing the hole, subjecting to the electric shock (0.19 mA), the recorded time was the latency period, meanwhile recording the number of step-through errors in 5 min after the mice got into the dark room. The memory experiment was carried out on the third day, the time from placing each mouse into the bright room to entering the dark room was recorded, if the mouse didn't enter the dark room in 5 min, then the latency period was recorded as 300s, meanwhile recording the number of step-through errors in 5 min after the mice got into the dark room.
It was assessed whether there was a synergistic effect between edaravone and borneol in the composition according to the Jong-eun's formula, q=E(a+b)/(Ea+Eb−Ea×Eb). […]

The subject of test [4] is SOD1-G93A mice. As to the kind of experiment: Onset time and survival time of SOD1-G93A mice (Example 3). The test is classed as in vivo. On the procedure:
The transgenic mice with amyotrophic lateral sclerosis (B 6 SJL-Tg(SOD1*G93A)1Gur/JNj u, hereinafter referred to as SOD1-G93 A mice) and the wild-type control mice were purchased from Nanjing Biomedical Research Institute of Nanjing University.
Dosing to animals was initiated from the age of 10 weeks, keeping on the whole survival period. Each dosage of the composition and the positive drug edaravone group was dosed by intraperitoneal injection once a day. […] Animals in the wild control group and the model group were given the corresponding volumes of solvents by intraperitoneal injection.
From the age of 10 weeks, the body weight, the motor function (motor ability score, rotarod test) of animals had been monitored once a week. Two consecutive rod droppings in the animal rotarod test had been considered as the sign of the onset of animal diseases. It was defined as the end of a disease to euthanasia when the animal cannot get righting in 30 seconds after being laid on one side.
The body weight, the motor ability score, the variation of the rod drop latency period with the time in the rotarod test, the onset time, and the survival time were considered as the indexes of observing the disease progress.

For test [5], the system named is SOD1-G93A mice. As to the kind of experiment: Motor function scores of SOD1-G93A mice (Example 3). The test is classed as in vivo. Particulars: p<0.05, FIG. 5.
Test [6] deals with SOD1-G93A mice. Put plainly: Rotarod test drop time of SOD1-G93A mice (Example 3). The test is classed as in vivo. As to conditions: p<0.05, FIG. 6. (The rotarod test checks motor coordination on a turning rod.)
Another test concerns mutant SOD1 G93A mice. Particulars: cited from earlier work.
The test system of test [7] is amyotrophic lateral sclerosis. Particulars: clinical phase-III study NCT00330681; primary endpoint not reached; cited from earlier work.
The next test concerns SOD1-H46R rat. Particulars: according to the literature; cited from earlier work.
Test [8] relates to cerebral ischemic animal models. As to conditions: SD rat, according to the literature; cited from earlier work.
The subject of test [9] is SOD1-G93A mice. Put plainly: Body weight of SOD1-G93A mice (Example 3). The test is classed as in vivo. Particulars: 100 μg/ml in drinking water; age 21 weeks; p<0.05; FIG. 4.
The mark [10] stands for this setting: 15 mg/kg/d i.p. once a day from age 10 weeks, mean ± standard error.
Setting [11] is: 100 μg/ml in drinking water, age 16-21 weeks.

Marks after values point to notes of the source that are not given here.

Consider `CC1(C)C2CCC1(C)C(O)C2` (stereo not shown) [Borneol, 2-camphol], for which, in the test with SOD1-G93A mice [1] (3 mg/kg/d i.p. from age 70 d), the “Effect on the survival time versus model group” value is recorded as “no statistical difference compared with the model group”. In addition, in the test with SOD1-G93A mice [1] (3 mg/kg/d), the “Survival Time Extension” value is 2.9 days, the “Onset Time” value stood at 113.1 ± 2.5 days and the “Survival Time” value came to 141.3 ± 3.6 days. For the same molecule, in the test on SOD1-G93A mice [1] (3 mg/kg/d, listed as borneol), the “Survival Time” value is 141.3 ± 3.6 days. The “Rotarod time versus model group” value in the test on SOD1-G93A mice [2] (3 mg/kg/d i.p., only at age 130 d) is “different significantly from the model group”. The “Latency period after entering the dark room versus model group” value in the test with SOD1-G93A mice [3] (3 mg/kg/d i.p. from 70 d) is listed as “not obvious”. In addition, in the test on SOD1-G93A mice [3] (3 mg/kg/d i.p.), the “Number of step-through errors versus model group” value is “not obvious”.
Turning to `CC1=NN(c2ccccc2)C(=O)C1` [Edaravone, 3-methyl-1-phenyl-2-pyrazolin-5-one], the “Effect on the survival time versus model group” value in the test on SOD1-G93A mice [1] (12 mg/kg/d i.p. from age 70 d) is “extending the survival time of the mice significantly”. For the same molecule, in the test with SOD1-G93A mice [1] (12 mg/kg/d i.p. from age 70 d), the “Influence on the onset time of the mice” value was “no influence on the onset time”. The “Survival Time Extension” value in the test on SOD1-G93A mice [1] (12 mg/kg/d) stood at 6.2 days; with SOD1-G93A mice [4] (15 mg/kg/d i.p., versus SOD1-G93A control), 9.4 days. In addition, the “Onset Time” value was 113.7 ± 2.6 days in the test with SOD1-G93A mice [1] (12 mg/kg/d) and 111.3 ± 10.0 days with SOD1-G93A mice [4] (setting [10]). Further, the “Survival Time” value was 144.6 ± 3.7 days in the test on SOD1-G93A mice [1] (12 mg/kg/d); 144.6 ± 3.7 days in the test on SOD1-G93A mice [1] (12 mg/kg/d, listed as edaravone); 151.7 ± 9.7* d in the test with SOD1-G93A mice [4] (setting [10]). Further, the “Rotarod time (muscle strength, motor function) versus model control group” value in the test with SOD1-G93A mice [2] (12 mg/kg/d i.p., age 110, 120, 130 d) was “significantly slow the decline of the muscle strength”. The “Latency period after entering the dark room versus model group” value in the test on SOD1-G93A mice [3] (12 mg/kg/d i.p. from 70 d, p<0.05) is given as “extended significantly”. Also, the “Number of step-through errors versus model group” value in the test with SOD1-G93A mice [3] (12 mg/kg/d i.p., p<0.05) is given as “decreased significantly”. Further, the “Motor function scores versus model group” value in the test on SOD1-G93A mice [5] (15 mg/kg/d i.p., age 17, 20, 21 weeks) is “significantly higher than in the model group”. Besides, in the test with SOD1-G93A mice [6] (15 mg/kg/d i.p., age 16, 19, 20, 21 weeks), the “Drop time in the rotarod test versus model group” value was “markedly longer than in the model group”. For the same molecule, the “Progression of the symptoms and degeneration of neuron” value in the test on mutant SOD1 G93A mice (Exp Neurol. 2008, 213(2):448-55) is recorded as “capable of slowing the progression of the symptoms”. For the same molecule, the Effective dose was 15 mg/kg in the test with mutant SOD1 G93A mice (SOD1-G93A mouse, according to the literature); 3 to 6 mg/kg in the test with SOD1-H46R rat; 6 mg/kg in test [8]. Moreover, the “ALSFRS-R score versus placebo group” value in [7] is on record as “decreased less than the placebo group, there was no significant difference”.
With `Nc1nc2ccc(OC(F)(F)F)cc2s1` [Riluzole], in the test with SOD1-G93A mice [4] (100 μg/ml in drinking water from age 10 weeks, mean ± standard error), the “Onset Time” value came to 109.2 ± 9.4 days. Besides, the “Weight of animals versus model control group” value in the test on SOD1-G93A mice [9] is “significantly higher than in the model control group”. Moreover, the “Motor function scores versus model group” value with SOD1-G93A mice [5] (setting [11]) is listed as “significantly higher than in the model group”. The “Drop time in the rotarod test versus model group” value with SOD1-G93A mice [6] (setting [11]) is “longer than in the model group markedly”.
